Measured values: patent US11503827B2, “Stabilized chemical composition” (priority 2010, dated 2022)

assay: Dissolution of active ingredient in liquid epoxy resin mixture, by inspection; type: physicochemical; conditions: 1.0-1.5 g AI in 8 g 635 Thin Epoxy Resin and 4 g 556 2:1 Epoxy Hardener
Description: Nine different individual resin mixtures were prepared by mixing together 8 g 635 Thin Epoxy Resin, 4 g 556 2:1 Epoxy Hardener and between 1.0 and 1.5 g of the following finely milled active ingredients: atrazine, azoxystrobin, bicylopyrone, cyproconazole, difenoconazole, mesotrione, prodiamine, thiabendazole, thiamethoxam. […] The samples were placed on a platform shaker overnight at room temperature and then examined by light microscopy. In every case the presence of a dispersion of epoxy resin particles of diameter approximately 100 microns was confirmed. Crystals of the active ingredient were visible inside the epoxy particles under polarized light, except that in the cases of bicyclopyrone and mesotrione individual crystals were not visible as these active ingredients had dissolved in the epoxy resin—in these cases the entire epoxy resin particle was slightly birefringent indicating the presence of crystal domains within the matrix.

Q: Which “dissolution of active ingredient in the liquid resin” value (“dissolution of active ingredient” below) does the source give for COCCOCc1nc(C(F)(F)F)ccc1C(=O)C1=C(O)C2CCC(C2)C1=O (stereo not drawn) [bicylopyrone] here?
A: Its value is “fully dissolved”.

Q: With CC(C1CC1)C(O)(Cn1cncn1)c1ccc(Cl)cc1 (stereo not drawn) [cyproconazole] as the compound, how does the “dissolution of active ingredient” value read?
A: The value was “most of the cyproconazole was dissolved”.

Q: Which “dissolution of active ingredient” value does the source give for CS(=O)(=O)c1ccc(C(=O)C2C(=O)CCCC2=O)c([N+](=O)[O-])c1 [mesotrione] here?
A: The value was “fully dissolved”.
